Assay results from PMC4300089, “Structure-Guided Design of Selective Epac1 and Epac2 Agonists” (PLoS Biology, 2015).

How the values were obtained:
[1] = target: T1, Epac1 (Homo sapiens, UniProt O95398); assay: Epac activation assay, Epac1; type: biochemical
T1 construct: made in house
T1 sequence (O95398 150-881 isoform O95398-3): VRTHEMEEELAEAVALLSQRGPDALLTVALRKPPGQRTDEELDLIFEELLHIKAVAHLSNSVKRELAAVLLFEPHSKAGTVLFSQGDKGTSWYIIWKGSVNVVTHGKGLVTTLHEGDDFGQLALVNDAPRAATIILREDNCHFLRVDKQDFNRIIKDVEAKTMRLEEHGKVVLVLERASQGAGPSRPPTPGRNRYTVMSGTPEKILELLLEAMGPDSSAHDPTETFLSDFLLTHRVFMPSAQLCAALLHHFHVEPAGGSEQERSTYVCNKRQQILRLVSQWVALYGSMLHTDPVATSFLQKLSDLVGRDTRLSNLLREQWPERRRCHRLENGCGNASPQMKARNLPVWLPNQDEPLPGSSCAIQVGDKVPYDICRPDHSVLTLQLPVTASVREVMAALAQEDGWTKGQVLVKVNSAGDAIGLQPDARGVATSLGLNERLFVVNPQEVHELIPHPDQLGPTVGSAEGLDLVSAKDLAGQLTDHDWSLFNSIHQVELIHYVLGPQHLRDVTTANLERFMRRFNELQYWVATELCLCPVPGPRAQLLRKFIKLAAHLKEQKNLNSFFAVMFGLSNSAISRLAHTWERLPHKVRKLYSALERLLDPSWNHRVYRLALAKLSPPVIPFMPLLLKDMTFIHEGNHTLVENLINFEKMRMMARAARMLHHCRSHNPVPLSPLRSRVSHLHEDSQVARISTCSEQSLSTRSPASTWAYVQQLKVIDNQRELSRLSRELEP

[2] = system: primary human islets; assay: Insulin secretion assay in primary human islets; type: cell-based; conditions: 25 to 100 μM; compared with Forskolin/IBMX
Experimental: Islets were isolated from two human donor pancreases. Intact islets (n = 20 per well) were seeded on ultra-low attachment 96-well plate. After 3 days of culture, the pancreatic islets were washed two times with 115 mM NaCl, 5 mM KCl, 24 mM NaHCO3, 2.2 mM CaCl2, 1 mM MgCl2, 20 mM HEPES, and 0.2% human serum albumin (incubation buffer) and primed for 1.5 h at 37°C in incubation buffer supplemented with 2 mM glucose (low glucose). Subsequently, the cells were incubated in fresh incubation buffer supplemented with 2 mM glucose for 1 h to measure the basal insulin secretion levels. […] The cell supernatants were collected immediately after incubation with low and high glucose. The insulin concentrations were measured by ELISA (Insulin ELISA Kit, Mercodia). The insulin secretion was expressed as the ratio of insulin concentration at high and low glucose concentrations for each well (insulin secretion index).

[3] = target: T2, Epac2^fl (Mus musculus, UniProt Q9EQZ6); conditions: footnote b, see also ref 11; cited from earlier work
T2 sequence (Q9EQZ6 1-993 isoform Q9EQZ6-3): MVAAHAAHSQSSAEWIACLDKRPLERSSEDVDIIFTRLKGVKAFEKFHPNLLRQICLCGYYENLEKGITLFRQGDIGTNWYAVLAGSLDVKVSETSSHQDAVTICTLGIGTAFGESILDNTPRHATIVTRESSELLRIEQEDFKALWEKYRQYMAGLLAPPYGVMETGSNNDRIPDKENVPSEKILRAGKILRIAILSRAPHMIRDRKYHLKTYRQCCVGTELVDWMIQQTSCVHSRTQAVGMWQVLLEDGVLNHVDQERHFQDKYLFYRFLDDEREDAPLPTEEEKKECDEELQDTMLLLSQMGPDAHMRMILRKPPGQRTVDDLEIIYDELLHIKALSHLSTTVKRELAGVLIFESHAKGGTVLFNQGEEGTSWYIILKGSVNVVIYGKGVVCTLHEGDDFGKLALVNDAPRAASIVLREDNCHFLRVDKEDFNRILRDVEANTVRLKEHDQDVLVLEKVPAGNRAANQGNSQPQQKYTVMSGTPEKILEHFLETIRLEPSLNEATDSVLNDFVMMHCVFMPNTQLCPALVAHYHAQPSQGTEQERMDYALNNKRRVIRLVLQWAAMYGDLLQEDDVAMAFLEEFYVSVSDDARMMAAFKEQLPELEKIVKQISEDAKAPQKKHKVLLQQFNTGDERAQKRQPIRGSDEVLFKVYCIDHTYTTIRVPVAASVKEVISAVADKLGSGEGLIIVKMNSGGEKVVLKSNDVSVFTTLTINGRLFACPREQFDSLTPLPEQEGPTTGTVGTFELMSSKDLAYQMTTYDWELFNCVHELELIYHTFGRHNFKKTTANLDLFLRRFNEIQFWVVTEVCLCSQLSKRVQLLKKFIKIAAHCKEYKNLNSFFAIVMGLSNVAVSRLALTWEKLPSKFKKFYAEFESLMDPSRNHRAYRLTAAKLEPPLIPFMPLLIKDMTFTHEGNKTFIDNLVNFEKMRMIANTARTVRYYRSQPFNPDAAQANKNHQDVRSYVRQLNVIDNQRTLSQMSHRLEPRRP

Compound | kobs ([1]; 0.01 μM compound) [s⁻¹] | kobs ([1]; 0.05 μM compound) [s⁻¹] | kobs ([1]; 0.08 μM compound) [s⁻¹] | kobs ([1]; 0.3 μM compound) [s⁻¹] | kobs ([1]; 0.5 μM compound) [s⁻¹] | kobs ([1]; 0.8 μM compound) [s⁻¹] | kobs ([1]; 1 μM compound) [s⁻¹] | kobs ([1]; 2 μM compound) [s⁻¹] | kobs ([1]; 3 μM compound) [s⁻¹] | kobs ([1]; 4 μM compound) [s⁻¹] | kobs ([1]; 5 μM compound) [s⁻¹] | kobs ([1]; 6 μM compound) [s⁻¹] | kobs ([1]; 7 μM compound) [s⁻¹] | kobs ([1]; 20 μM compound) [s⁻¹] | kobs ([1]; 30 μM compound) [s⁻¹] | kobs ([1]; 40 μM compound) [s⁻¹] | kobs ([1]; 50 μM compound) [s⁻¹] | kobs ([1]; 60 μM compound) [s⁻¹] | kobs ([1]; 70 μM compound) [s⁻¹] | kobs ([1]; 80 μM compound) [s⁻¹] | further results
Nc1ncnc2c1nc(SCc1ccccc1)n2[C@@H]1O[C@@H]2CO[P@](O)(=S)O[C@H]2[C@H]1O [S-220, Sp-8-BnT-cAMPS] | 1.6e-05 | 1.5e-05 | 1.6e-05 | 2e-05 | 2.2e-05 | 2.8e-05 | 4.3e-05 | 5.8e-05 | 7.9e-05 | 9.2e-05 | 0.000102 | 0.000128 | 0.000149 | 0.000263 | 0.000312 | 0.00033 | 0.000328 | 0.000336 | 0.000338 | 0.000331 | kobs ([1]; 0.1 μM compound): 1.7e-05 s⁻¹; kobs ([1]; 0.2 μM compound): 1.7e-05 s⁻¹; kobs ([1]; 0.6 μM compound): 2.5e-05 s⁻¹; kobs ([1]; 0.7 μM compound): 2.7e-05 s⁻¹; kobs ([1]; 8 μM compound): 0.000153 s⁻¹; kobs ([1]; 10 μM compound): 0.000213 s⁻¹; AC50 ([1]; Epac1): 13 µM; ability to reach half-maximal cAMP activity ([1]; Epac1): cannot activate Epac1 to the level of half-maximal cAMP-activity; Rel. kmax ([1]; Epac1, maximal activity relative to cAMP): 0.3; glucose-induced insulin secretion [2]: potentiates glucose-induced insulin secretion with similar efficiency
COC1C2OP(=O)(O)OCC2OC1n1c(Sc2ccc(Cl)cc2)nc2c(N)ncnc21 [D-007, 8-pCPT-2′-O-Me-cAMP, reference compound] | 4.6e-05 | 0.000133 | 0.000193 | 0.000569 | 0.000822 | 0.00123 | 0.00137 | 0.00219 | 0.00266 | 0.00283 | 0.00293 | 0.00312 | 0.00321 | 0.00351 | 0.00364 | 0.00378 | 0.00348 | 0.00363 | 0.0036 | 0.00359 | kobs ([1]; 0.1 μM compound): 0.000213 s⁻¹; kobs ([1]; 0.2 μM compound): 0.000391 s⁻¹; kobs ([1]; 0.4 μM compound): 0.000728 s⁻¹; kobs ([1]; 0.6 μM compound): 0.000999 s⁻¹; kobs ([1]; 0.7 μM compound): 0.00113 s⁻¹; kobs ([1]; 8 μM compound): 0.00328 s⁻¹; kobs ([1]; 100 μM compound): 0.00349 s⁻¹; potency relative to cAMP by activation potential (times more potently than cAMP) ([1]; Epac1): 100 times
Nc1ncnc2c1ncn2[C@@H]1O[C@@H]2COP(=O)(O)O[C@H]2[C@H]1O [cAMP, reference compound] | 1.1e-05 | 1.4e-05 | 2.5e-05 | 3e-05 | 3.8e-05 | 4.7e-05 | 5e-05 | 6.1e-05 | 9.3e-05 | 0.000116 | 0.000161 | 0.000161 | 0.000189 | 0.000421 | 0.000589 | 0.000692 | 0.000746 | 0.000796 | 0.000848 | 0.000859 | kobs ([1]; 0.1 μM compound): 2.8e-05 s⁻¹; kobs ([1]; 8 μM compound): 0.00021 s⁻¹; kobs ([1]; 10 μM compound): 0.000256 s⁻¹; kobs ([1]; 100 μM compound): 0.000937 s⁻¹; kobs ([1]; 200 μM compound): 0.00112 s⁻¹; kobs ([1]; 400 μM compound): 0.0012 s⁻¹; kobs ([1]; 600 μM compound): 0.00116 s⁻¹; kobs ([1]; 800 μM compound): 0.00118 s⁻¹; share of cAMP bound protein still in an inactive conformation ([1]; Epac1, assuming the most efficient activators shift the equilibrium fully): about 65%; Rel. kmax [3]: 1.0^b
Cc1ccc(CSc2nc3c(N)ncnc3n2[C@@H]2O[C@@H]3CO[P@](O)(=S)O[C@H]3[C@H]2O)cc1 [S-230, Sp-8-pMeBnT-cAMPS] | – | – | – | 1e-05 | 1e-05 | 1.1e-05 | 1.4e-05 | 2.1e-05 | 2.6e-05 | 3e-05 | 3.3e-05 | 3.8e-05 | 4.1e-05 | 9.4e-05 | 0.000115 | 0.000131 | 0.000148 | 0.000156 | 0.000164 | 0.00017 | kobs ([1]; 10 μM compound): 5.6e-05 s⁻¹; kobs ([1]; 100 μM compound): 0.000198 s⁻¹; kobs ([1]; 200 μM compound): 0.000232 s⁻¹; kobs ([1]; 400 μM compound): 0.000232 s⁻¹; kobs ([1]; 600 μM compound): 0.000218 s⁻¹; kobs ([1]; 800 μM compound): 0.000186 s⁻¹
